We go through two compounds from paper PMC9851200, “Multiparameter phenotypic screening for endogenous TFEB and TFE3 translocation identifies novel chemical series modulating lysosome function” (Autophagy, 2022).

Each structure is given as a SMILES string.

What all share (assay type): binding
The target of assay [1] is kinases (KINOMEscan panel) (Homo sapiens, UniProt P22607). Conditions: FGFR3; NEW KINOMEscan.
Assay [2] deals with T1, kinases (KINOMEscan panel) (Homo sapiens, UniProt P30530).
T1 sequence (P30530 26-894): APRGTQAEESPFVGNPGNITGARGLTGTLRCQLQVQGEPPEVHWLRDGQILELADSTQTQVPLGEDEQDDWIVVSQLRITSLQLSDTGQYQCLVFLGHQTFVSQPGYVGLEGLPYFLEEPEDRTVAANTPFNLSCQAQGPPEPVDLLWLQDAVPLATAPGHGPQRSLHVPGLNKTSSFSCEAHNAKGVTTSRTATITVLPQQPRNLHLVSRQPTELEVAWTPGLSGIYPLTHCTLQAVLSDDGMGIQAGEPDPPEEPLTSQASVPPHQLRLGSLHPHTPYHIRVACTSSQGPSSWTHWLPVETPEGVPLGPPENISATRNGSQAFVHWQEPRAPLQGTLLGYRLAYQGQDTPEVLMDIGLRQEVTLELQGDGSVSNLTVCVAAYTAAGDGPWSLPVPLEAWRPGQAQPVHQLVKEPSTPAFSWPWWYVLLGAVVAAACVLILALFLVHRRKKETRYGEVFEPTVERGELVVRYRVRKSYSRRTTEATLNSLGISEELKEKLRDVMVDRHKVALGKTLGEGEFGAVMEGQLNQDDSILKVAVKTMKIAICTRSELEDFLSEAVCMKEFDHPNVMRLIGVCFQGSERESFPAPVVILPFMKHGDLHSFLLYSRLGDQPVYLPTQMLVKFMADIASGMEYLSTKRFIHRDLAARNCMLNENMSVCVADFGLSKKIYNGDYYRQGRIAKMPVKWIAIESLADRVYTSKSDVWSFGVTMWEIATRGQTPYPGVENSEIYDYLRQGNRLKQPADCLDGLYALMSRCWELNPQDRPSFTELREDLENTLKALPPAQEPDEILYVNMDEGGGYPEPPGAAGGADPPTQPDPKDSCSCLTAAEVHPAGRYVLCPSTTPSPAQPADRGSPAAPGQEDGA
Conditions: AXL; NEW KINOMEscan.

Assay [3] deals with kinases (KINOMEscan panel) (Homo sapiens, UniProt Q9UPE1). The conditions noted are these: SRPK3; NEW KINOMEscan.
Assay [4] deals with kinases (KINOMEscan panel) (Homo sapiens, UniProt Q07002). Conditions: kinase CDK18; NEW KINOMEscan.
Assay [5] addresses T2, kinases (KINOMEscan panel) (Homo sapiens, UniProt Q8WXR4).
T2 sequence (Q8WXR4 1-1341): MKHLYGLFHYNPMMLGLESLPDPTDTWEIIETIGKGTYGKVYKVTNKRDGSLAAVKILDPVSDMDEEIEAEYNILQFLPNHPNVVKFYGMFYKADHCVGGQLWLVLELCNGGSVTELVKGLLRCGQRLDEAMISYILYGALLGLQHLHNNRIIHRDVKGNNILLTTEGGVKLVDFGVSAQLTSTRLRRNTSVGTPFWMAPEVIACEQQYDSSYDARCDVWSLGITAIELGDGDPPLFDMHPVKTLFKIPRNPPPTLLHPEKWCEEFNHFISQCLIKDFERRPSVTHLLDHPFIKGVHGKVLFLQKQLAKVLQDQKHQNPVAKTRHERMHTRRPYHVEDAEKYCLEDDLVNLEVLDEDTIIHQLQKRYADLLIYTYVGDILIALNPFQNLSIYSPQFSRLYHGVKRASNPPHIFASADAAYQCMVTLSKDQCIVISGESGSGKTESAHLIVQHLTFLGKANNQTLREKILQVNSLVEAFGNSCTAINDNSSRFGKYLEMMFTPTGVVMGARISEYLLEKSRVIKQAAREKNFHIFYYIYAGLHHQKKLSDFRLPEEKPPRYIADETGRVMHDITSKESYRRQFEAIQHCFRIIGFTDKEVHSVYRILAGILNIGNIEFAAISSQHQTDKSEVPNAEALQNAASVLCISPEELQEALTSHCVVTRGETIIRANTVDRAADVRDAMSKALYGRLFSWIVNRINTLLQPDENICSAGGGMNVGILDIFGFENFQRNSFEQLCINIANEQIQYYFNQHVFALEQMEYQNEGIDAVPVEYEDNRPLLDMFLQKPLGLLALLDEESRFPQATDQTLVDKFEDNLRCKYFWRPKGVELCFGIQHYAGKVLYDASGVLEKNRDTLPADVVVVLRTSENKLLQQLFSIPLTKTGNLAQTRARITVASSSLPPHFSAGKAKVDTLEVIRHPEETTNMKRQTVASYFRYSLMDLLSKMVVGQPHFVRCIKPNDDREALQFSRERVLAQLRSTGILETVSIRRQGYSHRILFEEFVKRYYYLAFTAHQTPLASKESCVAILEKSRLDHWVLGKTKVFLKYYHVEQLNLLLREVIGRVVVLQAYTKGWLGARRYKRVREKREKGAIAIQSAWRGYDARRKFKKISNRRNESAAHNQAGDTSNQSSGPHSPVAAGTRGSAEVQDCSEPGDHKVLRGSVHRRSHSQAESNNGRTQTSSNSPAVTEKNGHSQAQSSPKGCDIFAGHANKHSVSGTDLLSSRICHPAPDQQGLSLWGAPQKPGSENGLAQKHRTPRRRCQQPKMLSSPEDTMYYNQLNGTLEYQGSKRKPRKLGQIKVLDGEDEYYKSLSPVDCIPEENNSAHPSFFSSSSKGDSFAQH
Conditions: MYO3B; NEW KINOMEscan.

The target in assay [6] is kinases (KINOMEscan panel) (Homo sapiens, UniProt O94921). The conditions noted are these: NEW KINOMEscan.
Assay [7] addresses kinases (KINOMEscan panel) (Homo sapiens, UniProt Q96Q40).
The target in assay [8] is kinases (KINOMEscan panel) (Homo sapiens, UniProt P36888, R834Q). The conditions noted are these: kinase FLT3(R834Q); NEW KINOMEscan.
Assay [9] has as its target kinases (KINOMEscan panel) (Homo sapiens, UniProt P23458). Conditions: JAK1(JH1domain-catalytic); NEW KINOMEscan.
Assay [10] concerns the target kinases (KINOMEscan panel) (Homo sapiens, UniProt P16591). The conditions noted are these: FER; NEW KINOMEscan.
Assay [11] addresses kinases (KINOMEscan panel) (Homo sapiens, UniProt P00533). The conditions noted are these: kinase EGFR; NEW KINOMEscan.
The target in assay [12] is kinases (KINOMEscan panel) (Homo sapiens, UniProt P42336, H1047L). The conditions noted are these: NEW KINOMEscan.
Sequence of kinases (KINOMEscan panel) (Homo sapiens, UniProt P42336, H1047L) (P42336 whole entry H1047L): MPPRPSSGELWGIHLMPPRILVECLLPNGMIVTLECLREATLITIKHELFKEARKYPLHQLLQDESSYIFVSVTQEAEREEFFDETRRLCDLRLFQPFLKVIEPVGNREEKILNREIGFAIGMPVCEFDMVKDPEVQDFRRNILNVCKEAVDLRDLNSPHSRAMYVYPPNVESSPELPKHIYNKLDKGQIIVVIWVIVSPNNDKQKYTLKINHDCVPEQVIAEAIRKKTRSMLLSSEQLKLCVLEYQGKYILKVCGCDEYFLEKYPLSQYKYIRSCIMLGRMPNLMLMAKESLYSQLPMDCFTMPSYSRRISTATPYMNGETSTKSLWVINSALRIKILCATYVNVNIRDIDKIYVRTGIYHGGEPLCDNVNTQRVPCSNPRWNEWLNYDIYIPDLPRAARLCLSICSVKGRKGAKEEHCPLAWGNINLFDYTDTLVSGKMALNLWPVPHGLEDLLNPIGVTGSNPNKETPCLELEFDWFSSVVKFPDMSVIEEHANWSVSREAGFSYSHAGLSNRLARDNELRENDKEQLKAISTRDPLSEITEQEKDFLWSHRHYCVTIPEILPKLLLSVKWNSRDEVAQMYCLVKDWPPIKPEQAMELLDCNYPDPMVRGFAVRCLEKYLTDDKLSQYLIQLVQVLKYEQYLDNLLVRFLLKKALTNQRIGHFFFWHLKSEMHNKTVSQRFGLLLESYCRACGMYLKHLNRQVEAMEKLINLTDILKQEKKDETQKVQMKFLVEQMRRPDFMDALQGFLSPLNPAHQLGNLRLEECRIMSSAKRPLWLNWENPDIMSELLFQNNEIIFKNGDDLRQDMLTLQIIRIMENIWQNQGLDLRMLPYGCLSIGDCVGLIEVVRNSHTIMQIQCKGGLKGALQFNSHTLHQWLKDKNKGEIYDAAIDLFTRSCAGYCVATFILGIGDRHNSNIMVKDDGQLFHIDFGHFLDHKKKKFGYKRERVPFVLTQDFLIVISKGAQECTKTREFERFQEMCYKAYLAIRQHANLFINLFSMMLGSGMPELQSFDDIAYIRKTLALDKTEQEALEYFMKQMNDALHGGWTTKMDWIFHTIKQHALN

Sequence of kinases (KINOMEscan panel) (Homo sapiens, UniProt Q07002) (Q07002 whole entry): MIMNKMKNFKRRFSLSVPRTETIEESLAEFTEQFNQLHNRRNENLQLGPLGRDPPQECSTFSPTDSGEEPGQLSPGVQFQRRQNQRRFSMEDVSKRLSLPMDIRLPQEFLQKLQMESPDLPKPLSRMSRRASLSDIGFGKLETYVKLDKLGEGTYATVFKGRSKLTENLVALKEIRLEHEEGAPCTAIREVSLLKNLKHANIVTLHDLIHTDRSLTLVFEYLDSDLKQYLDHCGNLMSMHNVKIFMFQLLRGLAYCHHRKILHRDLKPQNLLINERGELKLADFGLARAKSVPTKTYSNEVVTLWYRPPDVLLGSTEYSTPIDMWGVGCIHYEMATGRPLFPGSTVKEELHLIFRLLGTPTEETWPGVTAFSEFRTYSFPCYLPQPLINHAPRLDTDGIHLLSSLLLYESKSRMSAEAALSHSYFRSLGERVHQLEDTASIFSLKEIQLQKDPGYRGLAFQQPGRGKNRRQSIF
Sequence of kinases (KINOMEscan panel) (Homo sapiens, UniProt Q96Q40) (Q96Q40 whole entry): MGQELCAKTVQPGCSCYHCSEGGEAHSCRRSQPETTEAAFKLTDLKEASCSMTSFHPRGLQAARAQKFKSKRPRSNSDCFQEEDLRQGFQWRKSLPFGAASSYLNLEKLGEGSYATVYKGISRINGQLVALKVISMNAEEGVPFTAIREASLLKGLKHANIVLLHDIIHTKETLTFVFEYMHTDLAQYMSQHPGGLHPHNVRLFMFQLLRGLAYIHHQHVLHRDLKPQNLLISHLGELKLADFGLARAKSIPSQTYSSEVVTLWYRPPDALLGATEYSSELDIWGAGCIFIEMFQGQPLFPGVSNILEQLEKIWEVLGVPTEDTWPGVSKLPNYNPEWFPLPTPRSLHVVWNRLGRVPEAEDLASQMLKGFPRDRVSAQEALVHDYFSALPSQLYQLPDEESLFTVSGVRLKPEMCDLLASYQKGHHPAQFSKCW
Sequence of kinases (KINOMEscan panel) (Homo sapiens, UniProt P22607) (P22607 23-806): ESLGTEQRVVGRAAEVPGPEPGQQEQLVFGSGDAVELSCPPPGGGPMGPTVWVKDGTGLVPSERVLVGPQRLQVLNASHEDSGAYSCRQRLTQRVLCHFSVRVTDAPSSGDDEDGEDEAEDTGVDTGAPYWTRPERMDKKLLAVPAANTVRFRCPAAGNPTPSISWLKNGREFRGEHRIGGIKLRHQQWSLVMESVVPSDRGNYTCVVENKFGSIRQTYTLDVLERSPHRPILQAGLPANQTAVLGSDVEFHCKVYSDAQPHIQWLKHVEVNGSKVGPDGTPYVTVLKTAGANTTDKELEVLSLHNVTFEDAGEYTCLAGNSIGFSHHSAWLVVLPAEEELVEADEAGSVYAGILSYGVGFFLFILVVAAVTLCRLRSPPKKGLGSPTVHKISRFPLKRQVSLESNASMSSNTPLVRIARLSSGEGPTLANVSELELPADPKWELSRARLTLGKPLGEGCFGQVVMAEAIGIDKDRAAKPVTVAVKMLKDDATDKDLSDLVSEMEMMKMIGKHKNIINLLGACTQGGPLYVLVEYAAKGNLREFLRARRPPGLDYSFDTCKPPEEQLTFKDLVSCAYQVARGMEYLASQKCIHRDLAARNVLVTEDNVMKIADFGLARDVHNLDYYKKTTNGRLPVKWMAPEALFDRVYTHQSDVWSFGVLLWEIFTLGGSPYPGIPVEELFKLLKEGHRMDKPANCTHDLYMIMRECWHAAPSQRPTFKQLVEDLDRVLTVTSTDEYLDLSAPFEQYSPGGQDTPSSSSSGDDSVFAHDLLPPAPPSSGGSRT
Sequence of kinases (KINOMEscan panel) (Homo sapiens, UniProt P00533) (P00533 25-1210): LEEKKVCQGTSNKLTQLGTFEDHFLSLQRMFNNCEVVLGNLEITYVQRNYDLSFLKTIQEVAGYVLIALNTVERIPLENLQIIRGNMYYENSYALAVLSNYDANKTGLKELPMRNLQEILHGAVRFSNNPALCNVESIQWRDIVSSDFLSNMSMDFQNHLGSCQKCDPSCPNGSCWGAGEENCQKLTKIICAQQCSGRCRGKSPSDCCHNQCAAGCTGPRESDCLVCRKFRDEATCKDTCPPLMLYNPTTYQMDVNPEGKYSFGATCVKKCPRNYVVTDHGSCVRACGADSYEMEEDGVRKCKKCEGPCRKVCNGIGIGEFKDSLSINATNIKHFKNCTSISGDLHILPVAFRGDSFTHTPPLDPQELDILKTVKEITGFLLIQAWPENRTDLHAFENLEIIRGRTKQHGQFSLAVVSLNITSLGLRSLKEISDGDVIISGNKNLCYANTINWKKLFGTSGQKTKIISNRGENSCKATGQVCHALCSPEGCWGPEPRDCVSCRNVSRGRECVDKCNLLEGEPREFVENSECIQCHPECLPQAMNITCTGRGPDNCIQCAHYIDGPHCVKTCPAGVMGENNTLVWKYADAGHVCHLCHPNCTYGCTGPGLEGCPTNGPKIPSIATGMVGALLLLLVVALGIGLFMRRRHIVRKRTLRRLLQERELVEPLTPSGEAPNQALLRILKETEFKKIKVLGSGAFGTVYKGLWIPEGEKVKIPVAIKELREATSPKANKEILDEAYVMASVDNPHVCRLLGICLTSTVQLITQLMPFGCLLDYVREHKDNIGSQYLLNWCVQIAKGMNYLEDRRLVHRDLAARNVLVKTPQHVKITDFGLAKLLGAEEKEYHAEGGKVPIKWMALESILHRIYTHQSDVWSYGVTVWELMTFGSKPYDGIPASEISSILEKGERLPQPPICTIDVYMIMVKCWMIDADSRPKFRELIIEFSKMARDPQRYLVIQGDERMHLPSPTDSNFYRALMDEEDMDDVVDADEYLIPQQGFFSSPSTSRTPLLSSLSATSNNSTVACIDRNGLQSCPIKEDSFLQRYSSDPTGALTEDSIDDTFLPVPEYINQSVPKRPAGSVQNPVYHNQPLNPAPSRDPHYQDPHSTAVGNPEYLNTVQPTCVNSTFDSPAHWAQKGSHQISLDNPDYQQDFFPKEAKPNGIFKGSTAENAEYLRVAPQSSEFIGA
Sequence of kinases (KINOMEscan panel) (Homo sapiens, UniProt P16591) (P16591 whole entry): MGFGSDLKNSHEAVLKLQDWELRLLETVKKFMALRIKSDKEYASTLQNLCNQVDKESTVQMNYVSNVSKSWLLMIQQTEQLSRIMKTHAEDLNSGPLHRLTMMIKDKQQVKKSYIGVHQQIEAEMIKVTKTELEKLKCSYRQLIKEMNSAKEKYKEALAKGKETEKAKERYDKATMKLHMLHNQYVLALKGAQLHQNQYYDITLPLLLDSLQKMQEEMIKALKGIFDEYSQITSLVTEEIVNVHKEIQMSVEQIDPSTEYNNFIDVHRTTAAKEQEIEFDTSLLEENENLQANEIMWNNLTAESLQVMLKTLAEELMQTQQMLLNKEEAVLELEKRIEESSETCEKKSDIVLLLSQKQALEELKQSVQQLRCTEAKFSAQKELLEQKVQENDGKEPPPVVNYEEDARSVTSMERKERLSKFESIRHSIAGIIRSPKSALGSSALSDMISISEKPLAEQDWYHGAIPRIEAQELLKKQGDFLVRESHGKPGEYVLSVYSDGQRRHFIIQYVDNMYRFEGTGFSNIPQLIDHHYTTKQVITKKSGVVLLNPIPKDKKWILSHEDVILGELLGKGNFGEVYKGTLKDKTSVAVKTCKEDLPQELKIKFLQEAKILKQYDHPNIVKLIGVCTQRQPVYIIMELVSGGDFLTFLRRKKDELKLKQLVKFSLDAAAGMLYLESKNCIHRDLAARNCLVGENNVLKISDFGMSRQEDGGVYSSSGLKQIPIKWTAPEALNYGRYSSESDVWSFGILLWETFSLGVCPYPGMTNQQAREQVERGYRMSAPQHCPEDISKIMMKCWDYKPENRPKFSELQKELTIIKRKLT

`Cc1cccc(-c2nc(N(C)c3ccc4ncsc4c3)c3ccccc3n2)n1` [NK-161]: in assay [1], the “KINOMEscan FGFR3” value was 1. The “KINOMEscan AXL” value in assay [2] came to 0. Also, in assay [3], the “KINOMEscan SRPK3” value came out at 1. Also, the “KINOMEscan CDK18” value in [4] amounted to 0. The “KINOMEscan MYO3B” value in assay [5] is 1. The “KINOMEscan CDK14” value in assay [6] is on record as 0. For the same compound, the “KINOMEscan CDK15/PFTAIRE2” value in assay [7] is given as 0. The “KINOMEscan FLT3(R834Q)” value in [8] stood at 2. In addition, the “KINOMEscan JAK1(JH1domain-catalytic)” value in assay [9] was found to be 0. Also, the “KINOMEscan FER” value in assay [10] came out at 0. Besides, the “KINOMEscan EGFR” value in [11] worked out at 1. The “KINOMEscan PIK3CA(H1047L)” value in [12] turned out to be 23.
With `Cc1cccc(-c2nc(Nc3ccc4nn(C)cc4c3)c3ccccc3n2)n1` [NK167], the “KINOMEscan FGFR3” value in assay [1] was 0. The “KINOMEscan AXL” value in assay [2] is 0. The “KINOMEscan SRPK3” value in [3] is listed as 0. Besides, in [4], the “KINOMEscan CDK18” value is given as 0. Moreover, the “KINOMEscan MYO3B” value in [5] is recorded as 0. Besides, the “KINOMEscan CDK14” value in assay [6] is given as 17. Also, the “KINOMEscan CDK15/PFTAIRE2” value in assay [7] was 0. Further, the “KINOMEscan FLT3(R834Q)” value in assay [8] is 0. In addition, the “KINOMEscan JAK1(JH1domain-catalytic)” value in assay [9] amounted to 0. For the same compound, the “KINOMEscan FER” value in assay [10] is 0. Also, in assay [11], the “KINOMEscan EGFR” value is 0. For the same compound, in assay [12], the “KINOMEscan PIK3CA(H1047L)” value is 4.
